Results as given in US6262119A, “Methods of treating immunopathologies using polyunsaturated fatty acids” (priority 1996, dated 2001).
Where two headings read alike, the source gives them in different places.

What was measured:
[1] = system: peripheral blood mononuclear cell proliferation; experiment: Mononuclear cell proliferation assay (thymidine incorporation); assay type: cell-based, human; conditions: for % INHIBITION OF INDUCED PROLIFERATION AT 20 μM PUFA: mitogen-induced PBMC proliferation, one experiment in duplicate, representative of 4; for inhibition at 20 µM: Homo sapiens, read-out: % INHIBITION OF PROLIFERATION
Description: Mononuclear Cell Proliferation Assays
Mononuclear cells were separated from peripheral blood of normal human donors as described by Ferrante and Thong (1980, J. Immunol. Methods 36:109)). The mononuclear cells were resuspended in RPMI-1640 containing 20% human AB serum and placed into 96 well microtrays (50 μl per well, cell density 4×10^6 cells/ml). Fatty acid ([…]) was then added in 50ul and pre-incubated with the cells for 30 min at 37° C. in 5% CO2. Mitogen (PHA, ConA, PWM, Staph. aureus) was then added in 100 μl and the cells incubated for 66 hours at 37° C. in 5% CO2 before the addition of tritiated thymidine (1 μCi/well). After a total of 72 h in culture the cells were harvested and proliferation (thymidine incorporation) and supernatant's assayed for the presence of cytokines.

[2] = system: DTH induced by SRBC; experiment: Delayed type hypersensitivity against sheep red blood cells; assay type: in vivo, Female balb/c mice
Description: Delayed Type Hypersensitivity Against Sheep Red Blood Cells. Female balb/c mice were administered a priming dose of 100 μl of a 10% haematocrit of sheep red blood cells (SRBC) subcutaneously. Six days later mice were administered 25 μl of a 10% haematocrit of SRBC intradermally into the right hind footpad at time T-0 hrs. The subsequent anti-inflammatory response was evaluated by measuring the thickness of both hind footpads. Standard anti-inflammatory compounds, vehicle and test substances were administered intraperitonieally one hour prior to the SRBC challenge. PUFA compounds were administered in peanut oil.

[3] = system: TNFα; experiment: PHA-induced TNFα production (ELISA of mononuclear cell supernatants); assay type: cell-based; conditions: Homo sapiens
Description: (§1) Fatty acid (66pmn) was then added in 50ul and pre-incubated with the cells for 30 min at 37° C. in 5% CO2. Mitogen (PHA, ConA, PWM, Staph. aureus) was then added in 100 μl and the cells incubated for 66 hours at 37° C. in 5% CO2 before the addition of tritiated thymidine (1 μCi/well). After a total of 72 h in culture the cells were harvested and proliferation (thymidine incorporation) and supernatant's assayed for the presence of cytokines.
(§2) Cytokine levels in culture supernatants were determined by specific ELISA using anti-cytokine antibodies. The following cytokine levels were determined TNFα, TNFβ, interferon-γ, IL-1β, IL-2.

[4] = system: psoriasis; conditions: drugs which block the cyclo-oxygenase pathway; cited from earlier work
[5] = system: interferon γ; experiment: PHA-stimulated interferon γ production (ELISA of mononuclear cell supernatants); assay type: cell-based; conditions: Homo sapiens, amino acid conjugated PUFA at 20 μM (Table 6), read-out: % inhibition of IFNγ production
Description: as §1, §2

[6] = PHA-induced TNFα, PUFA at 20 μM (Table 4), read-out: % INHIBITION OF CYTOKINE PRODUCTION (TNFα)
[7] = PHA-stimulated, amino acid conjugated PUFA at 20 μM (Table 6), read-out: % inhibition of TNFα production

Row | SMILES | inhibition at 20 µM [3, 6] [%] | inhibition at 20 µM [3, 7] [%] | inhibition at 20 µM [5] [%] | further results
1 | CCCCCC(O)/C=C/C=C\C/C=C\CCCCCOCC(=O)O (stereo not drawn) [16-OH-β-oxa 21:3 (n-6), Z, Z, E-(13-Hydroxy-6,9,1-octadecatienyloxy) acetic acid] | 71 | – | – | % INHIBITION OF INDUCED PROLIFERATION AT 20 μM PUFA [1]: 50%; % paw volume relative to control ([2]; 10 mg/kg, 3 hours post challenge): 95.03%; % paw volume relative to control ([2]; 10 mg/kg, 6 hours post challenge): 81.63%; % paw volume relative to control ([2]; 10 mg/kg, 24 hours post challenge): 86.91%; % paw volume relative to control ([2]; 50 mg/kg, 3 hours post challenge): 65.01%; % paw volume relative to control ([2]; 50 mg/kg, 6 hours post challenge): 48.95%; % paw volume relative to control ([2]; 50 mg/kg, 24 hours post challenge): 51.02%; % paw volume relative to control ([2]; 100 mg/kg, 3 hours post challenge): 55.86%; % paw volume relative to control ([2]; 100 mg/kg, 6 hours post challenge): 40.94%; % paw volume relative to control ([2]; 100 mg/kg, 24 hours post challenge): 31.97%
2 | COc1ccc2c(c1)c(CC(=O)O)c(C)n2C(=O)c1ccc(Cl)cc1 [Indomethacin, reference compound] | – | – | – | % paw volume relative to control ([2]; 30 mg/kg, 3 hours post challenge): 89.59%; % paw volume relative to control ([2]; 30 mg/kg, 6 hours post challenge): 81.40%; % paw volume relative to control ([2]; 30 mg/kg, 24 hours post challenge): 49.57%; exacerbations of psoriasis [4]: induce exacerbations of psoriasis
3 | C[C@]12C=CC(=O)C=C1CC[C@@H]1[C@@H]2[C@@H](O)C[C@@]2(C)[C@H]1CC[C@]2(O)C(=O)CO [Prednisolone, reference compound] | – | – | – | % paw volume relative to control ([2]; 20 mg/kg, 3 hours post challenge): 58.35%; % paw volume relative to control ([2]; 20 mg/kg, 6 hours post challenge): 60.12%; % paw volume relative to control ([2]; 20 mg/kg, 24 hours post challenge): 100%
4 | CCCCC/C=C\C/C=C\C/C=C\C/C=C\CCCC(=O)N[C@@H](CC(=O)O)C(=O)O [arachidonic acid-aspartic acid] | – | 38.3 | 68.4 | –
5 | CCCCC/C=C\C/C=C\C/C=C\C/C=C\CCCC(=O)NCC(=O)O [arachidonic acid-glycine] | – | 26.6 | 35.9 | inhibition at 20 µM [1]: 8%
6 | CC/C=C\C/C=C\C/C=C\C/C=C\C/C=C\C/C=C\CCC(=O)N[C@@H](CC(=O)O)C(=O)O [docosahexanoic acid-aspartic acid] | – | 17.4 | 8.3 | –
7 | CC/C=C\C/C=C\C/C=C\C/C=C\C/C=C\C/C=C\CCC(=O)NCC(=O)O [docosahexanoic acid-glycine] | – | 16.2 | 44 | –
8 | CC/C=C\C/C=C\C/C=C\C/C=C\C/C=C\CCCC(=O)N[C@@H](CC(=O)O)C(=O)O [eicosapentanoic acid-aspartic acid] | – | 17.1 | 66.1 | –
9 | CC/C=C\C/C=C\C/C=C\C/C=C\C/C=C\CCCC(=O)NCC(=O)O [eicosapentanoic acid-glycine] | – | 11 | 68.2 | –
10 | Cc1ccc(Cl)c(Nc2ccccc2C(=O)O)c1Cl [meclotenamate] | – | – | – | exacerbations of psoriasis [4]: induce exacerbations of psoriasis
11 | CCCCC1C(=O)N(c2ccccc2)N(c2ccccc2)C1=O [phenylbutazone] | – | – | – | exacerbations of psoriasis [4]: induce exacerbations of psoriasis
12 | CC/C=C\C/C=C\C/C=C\CCCCCCCC(=O)N[C@@H](CC(=O)O)C(=O)O [α-linolenic acid-aspartic acid] | – | 0 | 0 | inhibition at 20 µM ([1]; induced by PHA, PUFA at 20 μM): 7.3%
13 | CC/C=C\C/C=C\C/C=C\CCCCCCCC(=O)NCC(=O)O [α-linolenic acid-glycine] | – | 29.3 | 14.5 | inhibition at 20 µM ([1]; induced by PHA, PUFA at 20 μM): 15.6%
14 | CC/C=C\C/C=C\C/C=C\CCCCCCCCOCC(=O)O [β-oxa 21:3 (n-3), Z, Z, Z (9, 12, 15-Octadecatrienyloxy) acetic acid] | 39 | – | – | –
15 | CCCCC/C=C\C/C=C\C/C=C\CCCCCOCC(=O)O [β-oxa 21:3 (n-6), Z, Z, Z (6,9, 12-Octadecatrienyloxy) acetic acid] | 38 | – | – | % INHIBITION OF INDUCED PROLIFERATION AT 20 μM PUFA [1]: 17%
16 | CCCCC/C=C\C/C=C\C/C=C\C/C=C\CCCCOCC(=O)O [β-oxa 23:4 (n-6), Z, Z, Z, Z (5,8, 11, 14-Eicosatetraenyloxy) acetic acid] | 25 | – | – | –
17 | CC/C=C\C/C=C\C/C=C\CCCCCCCCSCC(=O)O [β-thia 21:3 (n-3), Z,Z,Z,Z-(9,12,15-Octadecatrienylthio)acetic acid] | 17 | – | – | % INHIBITION OF INDUCED PROLIFERATION AT 20 μM PUFA [1]: 28%
18 | CCCCC/C=C\C/C=C\C/C=C\CCCCCSCC(=O)O [β-thia 21:3 (n-6), Z,Z,Z,Z-(6,9, 12-Octadecatrienythio)acetica acid] | 17 | – | – | –
19 | CCCCC/C=C\C/C=C\C/C=C\C/C=C\CCCCSCC(=O)O [β-thia 23:4 (n-6), Z,Z,Z,Z-(5,8,11,14-Eicosatetraenylthio) acetic acid] | 35 | – | – | –
20 | CC/C=C\C/C=C\C/C=C\C/C=C\C/C=C\C/C=C\CCCSCC(=O)O [β-thia 25:6 (n-3)] | 90 | – | – | % INHIBITION OF INDUCED PROLIFERATION AT 20 μM PUFA [1]: 97%
21 | CCCCC/C=C\C/C=C\C/C=C\CCCCC(=O)N[C@@H](CC(=O)O)C(=O)O [γ-linolenic acid-aspartic acid] | – | 4.7 | 0 | inhibition at 20 µM ([1]; induced by PHA, PUFA at 20 μM): 15.4%
22 | CCCCC/C=C\C/C=C\C/C=C\CCCCC(=O)NCC(=O)O [γ-linolenic acid-glycine] | – | 21.5 | 0 | inhibition at 20 µM ([1]; induced by PHA, PUFA at 20 μM): 29%
23 | CC/C=C\C/C=C\C/C=C\CCCCCCCCSCCC(=O)O [γ-thia 22:3 (n-3), Z,Z,Z,Z-(9,12,15-Octadecatrienylthio)proponionic acid] | 25 | – | – | –
24 | CCCCC/C=C\C/C=C\C/C=C\CCCCCSCCC(=O)O [γ-thia 22:3 (n-6), Z,Z,Z,Z-(6,9,12-Octadecatrienylthio)propionic acid] | 41 | – | – | –
25 | CCCCC/C=C\C/C=C\C/C=C\C/C=C\CCCCSCCC(=O)O [γ-thia 24:4 (n-6), Z,Z,Z,Z-(5,8,11,14-Eicosatetraenylthio) propionic acid] | 34 | – | – | –
